Measurements reported in patent publication US10781467B2, “3-epimerase and polynucleotide encoding same” (priority 2016, dated 2020).

How the values were obtained:
3-epimerase [1] = assay: Metal dependence of 3-epimerase; format: biochemical, Thermogemmatispora carboxidivorans; settings: 1 mM metal ion; for Relative activity (%): EDTA-treated 3-epimerase 0.04 U/mL, 10% (w/v) fructose, Tris pH 7.5, 60° C., 20 minutes, None = 100; for effect of metal ion on enzyme activity: fructose as substrate
Protocol: In the current experimental examples, the enzyme activity is measured using fructose and sorbose as substrates. […] The sodium phosphate buffer solution containing fructose or sorbose is prepared by dissolving fructose or sorbose in a sodium phosphate buffer solution pH 7-8 to give a concentration of 60-70% (w/v). The sodium phosphate buffer solution containing fructose or sorbose is continuously added to a bioreactor maintained at 60° C. For the purpose of facilitating the comparison of enzyme activities, one unit of allulose-3-epimerase is defined as an amount of allulose-3-epimerase required to produce […] of D-allulose per minute at pH 7.5 and 60° C.; and one unit of tagatose-3-epimerase is defined as an amount of tagatose-3-epimerase required to produce […] of D-tagatose per minute at pH 7.5 and 60° C. The concentrations of fructose, D-allulose, sorbose, and D-tagatose are determined by high performance liquid chromatography with a BP-100 calcium ion […] column and an RI detector. The column temperature is 80° C., and the mobile phase is ultrapure water with a flow rate of 0.5 mL/min. In Example 3, in order to investigate the effect of metal ions on the 3-epimerase, the effect on the activity of 3-epimerase was measured with fructose as a substrate in the presence of various metal ions. The measurement was carried out by treating 3-epimerase with EDTA, and then adding 1 mM of various metal ions shown in Table 1 below to the 3-epimerase solution. The reaction catalyzed by 3-epimerase was carried out in a 50 mM Tris buffer pH 7.5 at 60° C. for 20 minutes, where the Tris buffer contained 0.04 U/mL 3-epimerase and 10% (w/v) fructose. The reaction solution was further heated at 100° C. for 15 minutes to terminate the reaction, and then the activity of the 3-epimerase was measured.

3-epimerase [2] = assay: Specificity of 3-epimerase for substrate; format: biochemical, Thermogemmatispora carboxidivorans; settings: for 3-epimerase activity for substrate: 10 mM monosaccharide; for Relative activity (%): 0.04 U/ml 3-epimerase, 10 mM monosaccharide as substrate, pH 7.5, 60° C., 20 minutes
Protocol: In the current experimental examples, the enzyme activity is measured using fructose and sorbose as substrates. In order to measure the enzyme activity, 3-epimerase is mixed with 50 mM sodium phosphate buffer solution (pH 7.5) containing 10% fructose or sorbose, reacted at 60° C. for 20 minutes, and then heated at 100° C. for 15 minutes to terminate the reaction. The sodium phosphate buffer solution containing fructose or sorbose is prepared by dissolving fructose or sorbose in a sodium phosphate buffer solution pH 7-8 to give a concentration of 60-70% (w/v). The sodium phosphate buffer solution containing fructose or sorbose is continuously added to a bioreactor maintained at 60° C. For the purpose of facilitating the comparison of enzyme activities, one unit of allulose-3-epimerase is defined as an amount of allulose-3-epimerase required to produce […] of D-allulose per minute at pH 7.5 and 60° C.; and one unit of tagatose-3-epimerase is defined as an amount of tagatose-3-epimerase required to produce […] of D-tagatose per minute at pH 7.5 and 60° C. The concentrations of fructose, D-allulose, sorbose, and D-tagatose are determined by high performance liquid chromatography with a BP-100 calcium ion […] column and an RI detector. The column temperature is 80° C., and the mobile phase is ultrapure water with a flow rate of 0.5 mL/min.
The reaction catalyzed by 3-epimerase was carried out in a 50 mM sodium phosphate buffer solution pH 7.5 at 60° C. for 20 minutes, where the sodium phosphate buffer solution contained 0.04 U/ml 3-epimerase and 10 mM of various individual monosaccharides shown in Table 2 below. Each reaction solution was heated at 100° C. for 15 minutes to terminate the reaction, and then the enzyme activity of the 3-epimerase in each reaction solution was measured.

[3] = in humans; cited from earlier work

| Relative activity (%) (3-epimerase [1]) | effect of metal ion on enzyme activity (3-epimerase [1]) | SMILES | 3-epimerase activity for substrate (3-epimerase [2]) | Relative activity (%) (3-epimerase [2]) | absorption rate [3] [%] |
| --- | --- | --- | --- | --- | --- |
| 120 |  | [Na+] [Na^+] |  |  |  |
| 65 |  | [Ca+2] [Ca^2+] |  |  |  |
| 130 | enhance the enzyme activity | [Mg+2] [Mg^2+] |  |  |  |
|  |  | O=C(CO)[C@@H](O)[C@H](O)[C@H](O)CO [Fructose, D-fructose] | active | 63.9 |  |
|  |  | O=C(CO)[C@H](O)[C@H](O)[C@H](O)CO [D-allulose, D-ribo-2-hexulose] | active | 100 |  |
|  |  | O=C(CO)[C@H](O)[C@@H](O)[C@H](O)CO [Sorbose, D-sorbose] | active | 21 |  |
| 0 | inhibit the enzyme activity | [Zn+2] [Zn^2+] |  |  |  |
|  |  | O=C(CO)[C@@H](O)[C@@H](O)[C@H](O)CO [D-tagatose] | active | 40.7 | 20 to 25 |
| 168 | enhance the enzyme activity | [Mn+2] [Mn^2+] |  |  |  |
| 113 |  | [K+] [K^+] |  |  |  |
| 0 | inhibit the enzyme activity | [Cu+2] [Cu^2+] |  |  |  |

| SMILES | Relative activity (%) (3-epimerase [1]) | effect of metal ion on enzyme activity (3-epimerase [1]) | 3-epimerase activity for substrate (3-epimerase [2]) | Relative activity (%) (3-epimerase [2]) | absorption rate [3] [%] |
| --- | --- | --- | --- | --- | --- |
| [Co+2] [Co^2+] | 170 | enhance the enzyme activity |  |  |  |
